The target of this experiment is T1, Estrogen Receptor (ERα) in MCF-7 human ductal carcinoma breast cell line (Homo sapiens, UniProt P03372).
T1 construct: endogenous in cells; host or cells: MCF-7
T1 sequence (P03372 1-595): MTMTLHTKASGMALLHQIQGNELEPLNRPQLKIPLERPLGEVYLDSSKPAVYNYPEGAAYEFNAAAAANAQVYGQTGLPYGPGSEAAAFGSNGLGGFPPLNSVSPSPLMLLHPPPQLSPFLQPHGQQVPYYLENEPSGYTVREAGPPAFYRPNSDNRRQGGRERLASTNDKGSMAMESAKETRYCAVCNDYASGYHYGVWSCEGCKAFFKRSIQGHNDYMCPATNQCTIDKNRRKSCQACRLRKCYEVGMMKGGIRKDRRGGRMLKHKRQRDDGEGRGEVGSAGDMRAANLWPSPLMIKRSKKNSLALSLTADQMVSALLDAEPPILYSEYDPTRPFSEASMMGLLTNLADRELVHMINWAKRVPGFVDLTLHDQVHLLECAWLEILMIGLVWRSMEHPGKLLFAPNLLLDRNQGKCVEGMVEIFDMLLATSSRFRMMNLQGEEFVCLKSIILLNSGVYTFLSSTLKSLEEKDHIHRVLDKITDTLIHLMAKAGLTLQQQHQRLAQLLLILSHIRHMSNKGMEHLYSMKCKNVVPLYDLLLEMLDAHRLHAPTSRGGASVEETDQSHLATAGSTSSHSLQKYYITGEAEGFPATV
The experiment is described as follows: MCF-7 ER degradation assay (cell based immuno-fluorescence). To be noted: MCF-7 cells; for ER degradation ≥ 90% at 0.3 μM: ER degradation by fulvestrant at 0.3 μM is defined as 100%; for DC50: 18-22 hours incubation, 50% reduction of ERα expression, single experiment or average of two or more, read-out: MCF-7 ER degradation IC50. The essentials:
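MCF-7 human ductal carcinoma breast cells were seeded at 3.75×10^4 cells per mL (40 μL per well) in 384 well plates with phenol red free DMEM containing 2 mM L-Glutamine and 5% (v/v) Charcoal/Dextran treated foetal calf serum. After overnight culture, compounds were acoustically dispensed, incubated 18-22 hours, then cells were formaldehyde-fixed and immunostained for ERα.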

Data on 12 compounds can be found in patent US10519152B2, “Compounds and their use in treating cancer” (AstraZeneca AB, priority 2017, dated 2019).

Consider `Cc1ncsc1-c1ccc(CNC(=O)[C@@H]2C[C@@H](O)CN2C(=O)[C@@H](NC(=O)COCCOCCCCCOc2cnc([C@@H]3c4[nH]c5ccccc5c4C[C@@H](C)N3CC(F)(F)F)c(F)c2)C(C)(C)C)cc1` [Example 165, (2S,4R)-1-((S)-2-(2-(2-((5-((5-Fluoro-6-((1S,3R)-3-methyl-2-(2,2,2-trifluoroethyl)-2,3,4,9-tetrahydro-1H-pyrido[3,4-b]indol-1-yl)pyridin-3-yl)oxy)pentyl)oxy)ethoxy)acetamido)-3,3-dimethylbutanoyl)-4-hydroxy-N-(4-(4-methylthiazol-5-yl)benzyl)pyrrolidine-2-carboxamide], for which the “ER degradation ≥ 90% at 0.3 μM” value is “••” and the DC50 turned out to be 4.4 nM.

For `Cc1ncsc1-c1ccc([C@H](C)NC(=O)[C@@H]2C[C@@H](O)CN2C(=O)[C@@H](NC(=O)C(F)(F)OCCOCCCCOc2cc(F)c([C@@H]3c4[nH]c5ccccc5c4C[C@@H](C)N3CC(C)(C)F)c(F)c2)C(C)(C)C)cc1` [Example 122, (2S,4R)-1-((S)-2-(2-(2-(4-(3,5-Difluoro-4-((1R,3R)-2-(2-fluoro-2-methylpropyl)-3-methyl-2,3,4,9-tetrahydro-1H-pyrido[3,4-b]indol-1-yl)phenoxy)butoxy)ethoxy)-2,2-difluoroacetamido)-3,3-dimethylbutanoyl)-4-hydroxy-N—((S)-1-(4-(4-methylthiazol-5-yl)phenyl)ethyl)pyrrolidine-2-carboxamide], the “ER degradation ≥ 90% at 0.3 μM” value was “•” and the DC50 is 2 nM.

On to `Cc1ncsc1-c1ccc(CNC(=O)[C@@H]2C[C@@H](O)CN2C(=O)[C@@H](NC(=O)COCCc2ccc(COc3cc(F)c([C@@H]4c5[nH]c6ccccc6c5C[C@@H](C)N4CC(C)(C)F)c(F)c3)nc2)C(C)(C)C)cc1` [Example 158, (2S,4R)-1-((S)-2-(2-(2-(6-((3,5-Difluoro-4-((1R,3R)-2-(2-fluoro-2-methylpropyl)-3-methyl-2,3,4,9-tetrahydro-1H-pyrido[3,4-b]indol-1-yl)phenoxy)methyl)pyridin-3-yl)ethoxy)acetamido)-3,3-dimethylbutanoyl)-4-hydroxy-N-(4-(4-methylthiazol-5-yl)benzyl)pyrrolidine-2-carboxamide], for which the “ER degradation ≥ 90% at 0.3 μM” value was “•” and the DC50 was 0.8 nM.

Regarding `Cc1ncsc1-c1ccc(CNC(=O)[C@@H]2C[C@@H](O)CN2C(=O)[C@@H](NC(=O)CCCCCCCCOc2cc(F)c([C@@H]3c4[nH]c5ccccc5c4C[C@@H](C)N3CC(C)(C)F)c(F)c2)C(C)(C)C)cc1` [Example 15, (2S,4R)-1-((S)-2-(9-(3,5-Difluoro-4-((1R,3R)-2-(2-fluoro-2-methylpropyl)-3-methyl-2,3,4,9-tetrahydro-1H-pyrido[3,4-b]indol-1-yl)phenoxy)nonanamido)-3,3-dimethylbutanoyl)-4-hydroxy-N-(4-(4-methylthiazol-5-yl)benzyl)pyrrolidine-2-carboxamide], the “ER degradation ≥ 90% at 0.3 μM” value is reported as “•” and the DC50 was found to be 3.9 nM.

With `CC(=O)O[C@@H]1C[C@@H](C(=O)NCc2ccc(-c3scnc3C)cc2)N(C(=O)[C@@H](NC(=O)COCCOCCOCCOc2cc(F)c([C@@H]3c4[nH]c5ccccc5c4C[C@@H](C)N3CC(C)(C)F)c(F)c2)C(C)(C)C)C1` [Example 34, (3R,5S)-1-((S)-2-(tert-Butyl)-14-(3,5-difluoro-4-((1R,3R)-2-(2-fluoro-2-methylpropyl)-3-methyl-2,3,4,9-tetrahydro-1H-pyrido[3,4-b]indol-1-yl)phenoxy)-4-oxo-6,9,12-trioxa-3-azatetradecanoyl)-5-((4-(4-methylthiazol-5-yl)benzyl)carbamoyl)pyrrolidin-3-yl Acetate], the “ER degradation ≥ 90% at 0.3 μM” value is “•” and the DC50 was found to be 1 nM.

On to `Cc1ncsc1-c1ccc(CNC(=O)[C@@H]2C[C@@H](O)CN2C(=O)[C@@H](NC(=O)COCCCCCOc2cc(F)c([C@@H]3c4[nH]c5ccccc5c4C[C@@H](C)N3CC(C)(C)F)c(F)c2)C(C)(C)C)cc1` [Example 18, (2S,4R)-1-((S)-2-(2-((5-(3,5-Difluoro-4-((1R,3R)-2-(2-fluoro-2-methylpropyl)-3-methyl-2,3,4,9-tetrahydro-1H-pyrido[3,4-b]indol-1-yl)phenoxy)pentyl)oxy)acetamido)-3,3-dimethylbutanoyl)-4-hydroxy-N-(4-(4-methylthiazol-5-yl)benzyl)pyrrolidine-2-carboxamide], for which the “ER degradation ≥ 90% at 0.3 μM” value is recorded as “•” and the DC50 came to 1 nM.

As for `Cc1ncsc1-c1ccc([C@H](C)NC(=O)[C@@H]2C[C@@H](O)CN2C(=O)[C@@H](NC(=O)COCCCCCOc2cc(F)c([C@@H]3c4[nH]c5ccccc5c4C[C@@H](C)N3CC(C)(C)F)c(F)c2)C(C)(C)C)cc1` [Example 28, (2S,4R)-1-((S)-2-(2-((5-(3,5-Difluoro-4-((1R,3R)-2-(2-fluoro-2-methylpropyl)-3-methyl-2,3,4,9-tetrahydro-1H-pyrido[3,4-b]indol-1-yl)phenoxy)pentyl)oxy)acetamido)-3,3-dimethylbutanoyl)-4-hydroxy-N—((S)-1-(4-(4-methylthiazol-5-yl)phenyl)ethyl)pyrrolidine-2-carboxamide], the “ER degradation ≥ 90% at 0.3 μM” value is reported as “•” and the DC50 is 0.8 nM.

Regarding `Cc1ncsc1-c1ccc(CNC(=O)[C@@H]2C[C@@H](O)CN2C(=O)[C@@H](NC(=O)COCCCCOc2cc(F)c([C@@H]3c4[nH]c5ccccc5c4C[C@@H](C)N3CC(C)(C)F)c(F)c2)C(C)(C)C)cc1` [Example 14, (2S,4R)-1-((S)-2-(2-(4-(3,5-Difluoro-4-((1R,3R)-2-(2-fluoro-2-methylpropyl)-3-methyl-2,3,4,9-tetrahydro-1H-pyrido[3,4-b]indol-1-yl)phenoxy)butoxy)acetamido)-3,3-dimethylbutanoyl)-4-hydroxy-N-(4-(4-methylthiazol-5-yl)benzyl)pyrrolidine-2-carboxamide], the “ER degradation ≥ 90% at 0.3 μM” value is recorded as “•” and the DC50 was determined as 1.4 nM.

Consider `Cc1ncsc1-c1ccc(CNC(=O)[C@@H]2C[C@@H](O)CN2C(=O)[C@@H](NC(=O)C(F)(F)OCCCOCCCOc2cc(F)c([C@@H]3c4[nH]c5ccccc5c4C[C@@H](C)N3CC(C)(C)F)c(F)c2)C(C)(C)C)cc1` [Example 119, (2S,4R)-1-((S)-2-(2-(3-(3-(3,5-Difluoro-4-((1R,3R)-2-(2-fluoro-2-methylpropyl)-3-methyl-2,3,4,9-tetrahydro-1H-pyrido[3,4-b]indol-1-yl)phenoxy)propoxy)propoxy)-2,2-difluoroacetamido)-3,3-dimethylbutanoyl)-4-hydroxy-N-(4-(4-methylthiazol-5-yl)benzyl)pyrrolidine-2-carboxamide], for which the “ER degradation ≥ 90% at 0.3 μM” value is recorded as “•” and the DC50 is 1.4 nM.

For `Cc1ncsc1-c1ccc(CNC(=O)[C@@H]2C[C@@H](O)CN2C(=O)[C@@H](NC(=O)COCCCCCCCOc2ccc([C@@H]3c4[nH]c5ccccc5c4C[C@@H](C)N3CC(F)F)nc2)C(C)(C)C)cc1` [Example 6, (2S,4R)-1-((S)-2-(2-((7-((6-((1S,3R)-2-(2,2-Difluoroethyl)-3-methyl-2,3,4,9-tetrahydro-1H-pyrido[3,4-b]indol-1-yl)pyridin-3-yl)oxy)heptyl)oxy)acetamido)-3,3-dimethylbutanoyl)-4-hydroxy-N-(4-(4-methylthiazol-5-yl)benzyl)pyrrolidine-2-carboxamide], the “ER degradation ≥ 90% at 0.3 μM” value is “••” and the DC50 was 3.6 nM.

As to `Cc1ncsc1-c1ccc(CNC(=O)[C@@H]2C[C@@H](O)CN2C(=O)[C@@H](NC(=O)CNCc2ccc(COc3cc(F)c([C@@H]4c5[nH]c6ccccc6c5C[C@@H](C)N4CC(C)(C)F)c(F)c3)nc2)C(C)(C)C)cc1` [Example 146], the “ER degradation ≥ 90% at 0.3 μM” value is “•” and the DC50 came to 0.6 nM.

Consider `Cc1ncsc1-c1ccc(CNC(=O)[C@@H]2C[C@@H](O)CN2C(=O)[C@@H](NC(=O)COCCCOCCCCOc2cc(F)c([C@@H]3c4[nH]c5ccccc5c4C[C@@H](C)N3CC(C)(C)F)c(F)c2)C(C)(C)C)cc1` [Example 129, (2S,4R)-1-((S)-2-(2-(3-(4-(3,5-Difluoro-4-((1R,3R)-2-(2-fluoro-2-methylpropyl)-3-methyl-2,3,4,9-tetrahydro-1H-pyrido[3,4-b]indol-1-yl)phenoxy)butoxy)propoxy)acetamido)-3,3-dimethylbutanoyl)-4-hydroxy-N-(4-(4-methylthiazol-5-yl)benzyl)pyrrolidine-2-carboxamide], for which the “ER degradation ≥ 90% at 0.3 μM” value was “••” and the DC50 was found to be 0.8 nM.
